US20150296790A1, “SILICON-CONTAINING COMPOUND AQUEOUS SOLUTION AND ANTIBACTERIAL/ANTIVIRAL AGENT INCLUDING SAID SOLUTION” (JEX CO., LTD., priority 2012, published 2015)

Test: Solubility of Silicon-Containing Compound E in aqueous CD solutions (clarity and stability, visual)
Format: physicochemical
Parameters: key to Solubility of Compound E: Stability: OK: When the aqueous solutions of the CD and the Silicon-Containing Compound E did not exhibit the conditions such as presence of precipitates and deposits, the solutions were considered as stable; NG: When the aqueous solutions of the CD and the Silicon-Containing Compound E exhibited the conditions such as presence of precipitates and deposits, the solutions were not considered as stable; key to Solubility of Compound E: Clarity: When the aqueous solutions of the CD and the Silicon-Containing Compound E were clear, the solutions were rated as “OK”; When the aqueous solutions of the CD and the Silicon-Containing Compound E were not clear, the solutions were rated as “NG”
Details: purified water
Description: To determine “Solubility of Compound E” in the tables, the Silicon-Containing Compound E as another solute was added at respective ratios shown in the respective tables (see “Ratio of Compound E” in the tables) to the respective aqueous CD solutions after evaluation of the solubility of CD, and then the mixture was stirred on a shaker to prepare the respective aqueous solutions of the CD and the Silicon-Containing Compound E. Immediately after preparation of the aqueous solutions of the CD and the Silicon-Containing Compound E, the clarity of the aqueous solutions was visually evaluated. When the aqueous solutions of the CD and the Silicon-Containing Compound E were clear, the solutions were rated as “OK”. When the aqueous solutions of the CD and the Silicon-Containing Compound E were not clear, the solutions were rated as “NG”. “Stability” in “Solubility of Compound E” in the tables was determined by allowing the respective aqueous solutions of the CD and the Silicon-Containing Compound E after preparation to stand at ambient temperature for a predetermined period and then visually evaluating the conditions (such as presence of precipitates and deposits) of the solutions.

[1] = β-CD 1 w/w %, Compound E 0.3 w/w %
[2] = β-CD 1 w/w %, Compound E 0.4 w/w %
[3] = β-CD 1 w/w %, Compound E 0.5 w/w %
[4] = β-CD 1 w/w %, Compound E 0.6 w/w %
[5] = β-CD 1 w/w %, Compound E 0.7 w/w %
[6] = β-CD 1 w/w %, Compound E 0.8 w/w %
[7] = β-CD 1 w/w %, Compound E 0.9 w/w %
[8] = β-CD 1 w/w %, Compound E 1 w/w %
[9] = γ-CD 1 w/w %, Compound E 0.1 w/w %
[10] = γ-CD 1 w/w %, Compound E 0.2 w/w %
[11] = γ-CD 1 w/w %, Compound E 0.3 w/w %
[12] = γ-CD 1 w/w %, Compound E 0.4 w/w %
[13] = γ-CD 1 w/w %, Compound E 0.5 w/w %
[14] = γ-CD 1 w/w %, Compound E 0.6 w/w %
[15] = γ-CD 1 w/w %, Compound E 0.7 w/w %
[16] = γ-CD 1 w/w %, Compound E 0.8 w/w %
[17] = γ-CD 1 w/w %, Compound E 0.9 w/w %
[18] = γ-CD 1 w/w %, Compound E 1 w/w %
[19] = γ-CD 3 w/w %, Compound E 0.1 w/w %
[20] = γ-CD 3 w/w %, Compound E 0.2 w/w %
[21] = γ-CD 3 w/w %, Compound E 0.3 w/w %
[22] = γ-CD 3 w/w %, Compound E 0.4 w/w %
[23] = γ-CD 3 w/w %, Compound E 0.5 w/w %
[24] = γ-CD 3 w/w %, Compound E 0.6 w/w %
[25] = γ-CD 3 w/w %, Compound E 0.7 w/w %
[26] = γ-CD 3 w/w %, Compound E 0.8 w/w %
[27] = γ-CD 3 w/w %, Compound E 0.9 w/w %
[28] = γ-CD 3 w/w %, Compound E 1 w/w %
[29] = γ-CD 6 w/w %, Compound E 0.1 w/w %
[30] = γ-CD 6 w/w %, Compound E 0.2 w/w %
[31] = γ-CD 6 w/w %, Compound E 0.3 w/w %
[32] = γ-CD 6 w/w %, Compound E 0.4 w/w %
[33] = γ-CD 6 w/w %, Compound E 0.5 w/w %
[34] = γ-CD 6 w/w %, Compound E 0.6 w/w %
[35] = γ-CD 6 w/w %, Compound E 0.7 w/w %
[36] = γ-CD 6 w/w %, Compound E 0.8 w/w %
[37] = γ-CD 6 w/w %, Compound E 0.9 w/w %
[38] = γ-CD 6 w/w %, Compound E 1 w/w %
[39] = γ-CD 10 w/w %, Compound E 0.1 w/w %
[40] = γ-CD 10 w/w %, Compound E 0.2 w/w %
[41] = γ-CD 10 w/w %, Compound E 0.3 w/w %
[42] = γ-CD 10 w/w %, Compound E 0.4 w/w %
[43] = γ-CD 10 w/w %, Compound E 0.5 w/w %
[44] = γ-CD 10 w/w %, Compound E 0.6 w/w %
[45] = γ-CD 10 w/w %, Compound E 0.7 w/w %
[46] = γ-CD 10 w/w %, Compound E 0.8 w/w %
[47] = γ-CD 10 w/w %, Compound E 0.9 w/w %
[48] = γ-CD 10 w/w %, Compound E 1 w/w %

CCCCCCCCCCCCCCCCCC[N+](C)(C)CCC[Si](OCC)(OCC)OCC.[Cl-] [Compound E, Octadecyl dimethyl(3-triethoxysilylpropyl)ammonium chloride]
Solubility of Compound E: Stability (β-CD 1 w/w %, Compound E 0.2 w/w %): OK | Solubility of Compound E: Clarity [1]: NG | Solubility of Compound E: Stability [1]: OK | Solubility of Compound E: Clarity [2]: NG | Solubility of Compound E: Stability [2]: OK | Solubility of Compound E: Clarity [3]: NG | Solubility of Compound E: Stability [3]: OK | Solubility of Compound E: Clarity [4]: NG | Solubility of Compound E: Stability [4]: OK | Solubility of Compound E: Clarity [5]: NG | Solubility of Compound E: Stability [5]: OK | Solubility of Compound E: Clarity [6]: NG | Solubility of Compound E: Stability [6]: OK | Solubility of Compound E: Clarity [7]: NG | Solubility of Compound E: Stability [7]: OK | Solubility of Compound E: Clarity [8]: NG | Solubility of Compound E: Stability [8]: OK | Solubility of Compound E: Clarity [9]: OK | Solubility of Compound E: Stability [9]: OK | Solubility of Compound E: Clarity [10]: OK | Solubility of Compound E: Stability [10]: OK | Solubility of Compound E: Clarity [11]: OK | Solubility of Compound E: Stability [11]: OK | Solubility of Compound E: Clarity [12]: OK | Solubility of Compound E: Stability [12]: OK | Solubility of Compound E: Clarity [13]: NG | Solubility of Compound E: Stability [13]: OK | Solubility of Compound E: Clarity [14]: NG | Solubility of Compound E: Stability [14]: OK | Solubility of Compound E: Clarity [15]: NG | Solubility of Compound E: Stability [15]: OK | Solubility of Compound E: Clarity [16]: NG | Solubility of Compound E: Stability [16]: OK | Solubility of Compound E: Clarity [17]: NG | Solubility of Compound E: Stability [17]: OK | Solubility of Compound E: Clarity [18]: NG | Solubility of Compound E: Stability [18]: OK | Solubility of Compound E: Clarity [19]: NG | Solubility of Compound E: Stability [19]: OK | Solubility of Compound E: Clarity [20]: NG | Solubility of Compound E: Stability [20]: OK | Solubility of Compound E: Clarity [21]: NG | Solubility of Compound E: Stability [21]: OK | Solubility of Compound E: Clarity [22]: NG | Solubility of Compound E: Stability [22]: OK | Solubility of Compound E: Clarity [23]: NG | Solubility of Compound E: Stability [23]: OK | Solubility of Compound E: Clarity [24]: NG | Solubility of Compound E: Stability [24]: OK | Solubility of Compound E: Clarity [25]: NG | Solubility of Compound E: Stability [25]: OK | Solubility of Compound E: Clarity [26]: NG | Solubility of Compound E: Stability [26]: OK | Solubility of Compound E: Clarity [27]: NG | Solubility of Compound E: Stability [27]: OK | Solubility of Compound E: Clarity [28]: NG | Solubility of Compound E: Stability [28]: OK | Solubility of Compound E: Clarity [29]: NG | Solubility of Compound E: Stability [29]: OK | Solubility of Compound E: Clarity [30]: NG | Solubility of Compound E: Stability [30]: OK | Solubility of Compound E: Clarity [31]: NG | Solubility of Compound E: Stability [31]: OK | Solubility of Compound E: Clarity [32]: NG | Solubility of Compound E: Stability [32]: OK | Solubility of Compound E: Clarity [33]: NG | Solubility of Compound E: Stability [33]: OK | Solubility of Compound E: Clarity [34]: NG | Solubility of Compound E: Stability [34]: OK | Solubility of Compound E: Clarity [35]: NG | Solubility of Compound E: Stability [35]: OK | Solubility of Compound E: Clarity [36]: NG | Solubility of Compound E: Stability [36]: OK | Solubility of Compound E: Clarity [37]: NG | Solubility of Compound E: Stability [37]: OK | Solubility of Compound E: Clarity [38]: NG | Solubility of Compound E: Stability [38]: OK | Solubility of Compound E: Clarity [39]: NG | Solubility of Compound E: Stability [39]: NG | Solubility of Compound E: Clarity [40]: NG | Solubility of Compound E: Stability [40]: NG | Solubility of Compound E: Clarity [41]: NG | Solubility of Compound E: Stability [41]: NG | Solubility of Compound E: Clarity [42]: NG | Solubility of Compound E: Stability [42]: NG | Solubility of Compound E: Clarity [43]: NG | Solubility of Compound E: Stability [43]: NG | Solubility of Compound E: Clarity [44]: NG | Solubility of Compound E: Stability [44]: NG | Solubility of Compound E: Clarity [45]: NG | Solubility of Compound E: Stability [45]: NG | Solubility of Compound E: Clarity [46]: NG | Solubility of Compound E: Stability [46]: NG | Solubility of Compound E: Clarity [47]: NG | Solubility of Compound E: Stability [47]: NG | Solubility of Compound E: Clarity [48]: NG | Solubility of Compound E: Stability [48]: NG
